Experimental findings from a melting point compilation (Tetko et al.) are described below.

As a reminder, the melting point is the temperature of the solid-liquid transition.

`O=C(O)CCCN1C(=O)c2ccccc2C1=O` gave a melting point of 96 to 98 °C.

Compound `CN1CCCC[C@@H]1C(=O)O` had a melting point of 219 to 221 °C.

In the case of `Nc1c(F)cccc1-n1cncn1`, the melting point was in the range of 103 to 105 °C.

For the compound `Nc1c(C(=O)O)cnc2ccccc12`, the melting point lay within 303 to 305 °C.

Turning to `O=C(O)c1cccc2c1CCCN2`, the melting point lay within 142 to 144 °C.

In turn, `Cc1nsc(N)c1C(=O)O` yielded a melting point of 158 to 160 °C.

`O=C(O)c1c[nH]cc1C(=O)O` displayed a melting point of 311 to 313 °C.

`Cn1cc(C=O)nn1` registered a melting point of 103 to 105 °C.

The compound `NC(=S)Cc1nnc2n1CCCCC2` registered a melting point of 227 to 229 °C.

With `Oc1ccc(OC2CCCCC2)cc1`, the melting point is 63 to 65 °C.

Compound `ClCc1cn(-c2ccc(Cl)cc2)nn1` came in with a melting point of 139 to 141 °C.

`Cc1ncc(C(=O)O)c(Br)c1Cl`: the melting point lay in the range of 129 to 131 °C.

The compound `CC1(C)Cc2c(sc(N)c2C#N)C(C)(C)N1` showed a melting point of 197 to 199 °C.

Take `COc1ccc2c(c1)OCC(C(=O)O)C2` (stereo not drawn): the melting point is 152 to 154 °C.

On to `Fc1cc(F)cc(-c2n[nH]c(S)n2)c1`, for which the melting point lay in the range of 279 to 281 °C.

In turn, `CCC(Br)C(=O)Nc1cc(C)on1` (stereo not drawn) displayed a melting point of 103 to 105 °C.

The compound `CCOC(=O)c1c(N)sc2c1CCC(CC)C2` (stereo not drawn) gave a melting point of 88 to 90 °C.

Compound `CNC1(C(=O)O)CCc2ccccc21` (stereo not drawn) displayed a melting point of 279 to 281 °C.

`Nc1cccc(S(=O)(=O)NC2=NCCC2)c1` showed a melting point of 166 to 168 °C.

Take `O=C(NC1CC1)C(Cl)c1ccccc1` (stereo not drawn): the melting point is 128 to 130 °C.

`Cc1cc(S(N)(=O)=O)cc([N+](=O)[O-])c1C` came in with a melting point of 180 to 182 °C.

With `Nc1ncc(Cc2c(Cl)cccc2Cl)s1`, the melting point fell in the range of 139 to 141 °C.

The compound `O=C(O)c1cc(-c2ccccn2)ccc1Cl` registered a melting point of 215 to 217 °C.

Consider `O=C(O)C1CCCN1c1ncnc2ccccc12` (stereo not drawn), for which the melting point was in the range of 139 to 141 °C.

Consider `ClCc1cc(Cl)c2c(c1)OCCO2`, for which the melting point lay within 59 to 61 °C.

In turn, `CCOC(=O)c1nc(-c2ccc(Cl)c(Cl)c2)oc1C` had a melting point of 99 to 101 °C.

On to `Cc1c(C(=O)O)cnn1-c1cccc(C(F)(F)F)c1`, for which the melting point fell in the range of 122 to 124 °C.

Regarding `NNC(=O)Cc1cn2ccccc2n1`, the melting point was 128 to 130 °C.

Consider `NC(C(=O)O)(c1cc(F)cc(F)c1)C(F)(F)F` (stereo not drawn), for which the melting point was 121 to 123 °C.

Take `CC(Cl)C(=O)NC(N)=O` (stereo not drawn): the melting point was in the range of 159 to 161 °C.

As to `O=C(O)CCCc1ccc(Br)s1`, the melting point is 54 to 58 °C.

In turn, `NC(Cc1ccc(Cl)cc1)=NO` had a melting point of 96 to 98 °C.

Take `O=S(=O)(Cl)Cc1c(F)cccc1F`: the melting point lay within 73 to 75 °C.

For the compound `CS(=O)(=O)c1cc(S(=O)(=O)Cl)ccc1F`, the melting point was 112 to 114 °C.

`COC(=O)C(C)NC(=O)Cc1ccc(Cl)cc1` (stereo not drawn) came in with a melting point of 82 to 84 °C.

As to `O=C(O)c1cc2cc(F)ccc2s1`, the melting point was in the range of 207 to 209 °C.

`Cc1cc(C(=O)CCl)ccc1F` registered a melting point of 33 to 35 °C.

For the compound `CCc1c(C)nc2ccccc2c1O`, the melting point is 279 to 281 °C.

`Nc1cnc(Cc2ccc(F)cc2)nc1`: the melting point fell in the range of 123 to 125 °C.

With `O=C(O)CCC(=O)N1CCN(S(=O)(=O)c2ccccc2)CC1`, the melting point lay within 155 to 157 °C.

`Fc1cccc(-n2ccnc2)n1` displayed a melting point of 87 to 89 °C.

Compound `Cc1ccc(-n2nnnc2S)c(C)c1` gave a melting point of 110 to 112 °C.

In turn, `CCNCc1cccc(NC(=O)c2cc(Cl)c[nH]2)c1` had a melting point of 126 to 128 °C.

In turn, `CCc1nc(N)no1` showed a melting point of 39 to 41 °C.

Compound `O=C(O)c1ccccc1OCc1cscn1` returned a melting point of 117 to 121 °C.

The compound `CCOc1ccc(CC(CN)C(N)=O)cc1` (stereo not drawn) registered a melting point of 116 to 118 °C.

For the compound `CCN(c1ccccc1)S(=O)(=O)c1ccc(Cl)c(C(=O)O)c1`, the melting point lay within 128 to 130 °C.

In turn, `N#CC(c1ccc(Br)cc1)N1CCNCC1` (stereo not drawn) gave a melting point of 83 to 85 °C.

The compound `CC(C)(C)NS(=O)(=O)c1ccccc1NN` displayed a melting point of 122 to 124 °C.

Turning to `O=[N+]([O-])c1ccc(Cc2nnn[nH]2)cc1`, the melting point was 178 to 180 °C.

Turning to `Cc1ccc(C2(C)NC(=O)N(CC(=O)O)C2=O)cc1` (stereo not drawn), the melting point fell in the range of 206 to 208 °C.

Compound `O=C1CC(C(F)(F)F)N(C(=O)CCl)c2ccccc2N1` (stereo not drawn) had a melting point of 159 to 161 °C.

As for `Cc1cc(Br)c(N)cc1[N+](=O)[O-]`, the melting point lay in the range of 115 to 117 °C.

`Cc1sc2[nH]c(CCC(=O)O)nc(=O)c2c1C`: the melting point fell in the range of 249 to 251 °C.

`NS(=O)(=O)c1cc(Br)c(Cl)c(C(=O)O)c1` had a melting point of 219 to 221 °C.

`O=C(O)CS(=O)(=O)CCCc1ccccc1`: the melting point fell in the range of 97 to 99 °C.

`CCC(CC)C(=O)N1CCC(=NO)CC1`: the melting point fell in the range of 101 to 103 °C.

As for `O=c1[nH]c2ccccc2nc1NO`, the melting point lay within 258 to 260 °C.

For the compound `Nc1cccc(-c2csc(N)n2)c1`, the melting point lay within 174 to 176 °C.

`COCCNC(=S)NN` returned a melting point of 85 to 87 °C.

`Cc1cc(N)c2cccnc2c1C` yielded a melting point of 124 to 126 °C.

With `CC(C)(C)c1cccc(OCC(=O)O)c1`, the melting point lay in the range of 117 to 119 °C.

`O=C(O)CCCCCNC(=O)NC1CCCCC1` displayed a melting point of 138 to 140 °C.

As to `O=C(O)CCc1cc(F)ccc1F`, the melting point fell in the range of 71 to 73 °C.

As for `O=Cc1sc(Nc2ccccc2)nc1Cl`, the melting point was 164 to 166 °C.

Compound `Nc1cccc(NC(=O)C2CC2)c1` registered a melting point of 133 to 135 °C.

Compound `O=C(O)c1cccc(S(=O)(=O)NC2CCCC2)c1` returned a melting point of 209 to 211 °C.

As to `COc1ccc(-c2nc(CO)cs2)cc1`, the melting point lay in the range of 74 to 76 °C.

For the compound `CCCNC(=O)c1cccnc1Cl`, the melting point lay in the range of 63 to 65 °C.

The compound `CCc1ccc(N2CCC(=O)CC2)cc1` showed a melting point of 43 to 45 °C.

Regarding `O=C(O)c1cc(Cl)c2c(c1)OCCO2`, the melting point lay within 251 to 253 °C.

The compound `O=C(O)c1ccc(SCCCO)cc1` displayed a melting point of 168 to 170 °C.

`O=S(=O)(c1ccc2[nH]c(S)nc2c1)N1CCOCC1` showed a melting point of 285 to 287 °C.

The compound `ClCc1coc(-c2ccccc2Br)n1` came in with a melting point of 46 to 48 °C.

The compound `CCN(CC)S(=O)(=O)c1cccc(C(=O)NN)c1` gave a melting point of 133 to 135 °C.

Take `O=C(Nc1cccc(Br)c1)c1cccc(S(=O)(=O)N2CCCCCC2)c1`: the melting point fell in the range of 149 to 151 °C.

Consider `N#CCc1csc(-c2ccccc2)n1`, for which the melting point lay within 57 to 59 °C.

As for `C=CCn1c(N)c(C(N)=S)sc1=S`, the melting point lay within 195 to 197 °C.

For `Cc1cc(C(=O)O)c2ccc(F)cc2n1`, the melting point lay in the range of 267 to 269 °C.

In turn, `Cc1c(C=O)c2ccccn2c1C#N` gave a melting point of 170 to 172 °C.

`Cc1cc(C=O)cnc1Cl` displayed a melting point of 47 to 49 °C.

The compound `COc1cc(Cl)c(C(=O)O)cc1OC` registered a melting point of 179 to 181 °C.

`CC1CCN(c2cc(C(=O)O)ccn2)C1` (stereo not drawn) came in with a melting point of 195 to 197 °C.

In the case of `CCOC(=O)c1sc(O)nc1C`, the melting point lay in the range of 171 to 173 °C.

Compound `O=C(Nc1cccc2cnccc12)OCC(F)(F)F` displayed a melting point of 181 to 183 °C.

Take `O=[N+]([O-])c1cc2c(cc1Br)OCCO2`: the melting point lay within 167 to 169 °C.

Consider `COc1ccccc1C(C)CC(=O)O` (stereo not drawn), for which the melting point fell in the range of 50 to 52 °C.

For `CC(C)CNC(N)=O`, the melting point was in the range of 134 to 138 °C.

In turn, `OC(c1ccccc1)c1nccs1` (stereo not drawn) showed a melting point of 99 to 101 °C.

In turn, `CCC1(CC)NC(=O)N(CC(=O)O)C1=O` yielded a melting point of 169 to 173 °C.

For `CC(C)C(=O)Nc1cccc(N)c1`, the melting point is 119 to 121 °C.

Consider `CC(=O)NCc1ccc(C(=O)O)cc1`, for which the melting point was in the range of 188 to 190 °C.

Consider `Cc1cccc(C(=O)CC#N)c1C`, for which the melting point was 56 to 58 °C.

In the case of `O=C(NNc1ccccc1)Nc1ccccc1`, the melting point was in the range of 178 to 180 °C.

Take `CNCC(O)CN1CCCC1=O` (stereo not drawn): the melting point lay within 88 to 90 °C.

For `Nc1cc(N2C(=O)CCC2=O)ccc1F`, the melting point is 215 to 217 °C.

`CN(CCOc1ccccc1F)C(=O)CCl` registered a melting point of 68 to 70 °C.

`COc1cc(C(C)=O)cc(O)c1OC` returned a melting point of 59 to 61 °C.

Regarding `CNc1cc(F)ccc1[N+](=O)[O-]`, the melting point fell in the range of 110 to 112 °C.

Compound `O=C(Nc1ccccc1F)C1CCc2ccccc2N1` (stereo not drawn) came in with a melting point of 96 to 98 °C.

`Cc1cc(Cl)cc(N)c1I` returned a melting point of 48 to 50 °C.

`Cc1ccc2[nH]cc(C=O)c2c1` registered a melting point of 142 to 144 °C.

In the case of `CCOC(=O)c1ncoc1-c1scnc1C`, the melting point lay within 78 to 80 °C.

The compound `COc1ccc(C(=O)NC2CCS(=O)(=O)C2)cc1N` (stereo not drawn) returned a melting point of 145 to 147 °C.

Compound `CCOc1cc(C=O)ccc1OCCOc1ccc(F)cc1` came in with a melting point of 85 to 87 °C.

Compound `Nc1ccccc1NC12CC3CC(CC(C3)C1)C2` registered a melting point of 92 to 94 °C.

In turn, `CC(C)c1noc(-c2ccccc2C(=O)O)n1` registered a melting point of 141 to 143 °C.

As to `Oc1ccc(Oc2ccccn2)cc1`, the melting point is 142 to 144 °C.

`CC(C)Oc1cnc(C(=O)O)cn1` had a melting point of 109 to 111 °C.

With `Cc1[nH]c(-c2ccccn2)nc(=NN)c1C`, the melting point is 182 to 184 °C.

As for `CCOC(=O)/C(C#N)=C\Nc1ccc(F)c(F)c1F`, the melting point was 142 to 144 °C.

`CS(=O)(=O)c1nnc(N)[nH]1` registered a melting point of 243 to 245 °C.

In turn, `Cc1ccccc1C(C)CC(=O)O` (stereo not drawn) had a melting point of 47 to 49 °C.

Regarding `CC(CO)NC(=O)C1=Cc2cc(Br)ccc2OC1` (stereo not drawn), the melting point fell in the range of 157 to 159 °C.

Turning to `Cc1cc(S(=O)(=O)Cl)cc([N+](=O)[O-])c1C`, the melting point lay in the range of 127 to 129 °C.

`CC(=O)c1ccc2ccccc2n1`: the melting point was in the range of 47 to 49 °C.

Consider `CS(=O)(=O)c1ccc(N)c(C(=O)O)c1`, for which the melting point lay in the range of 239 to 241 °C.

`Cc1ccnc(Oc2ccc(N)cc2)n1` had a melting point of 119 to 121 °C.

For the compound `COc1ccc(S(=O)(=O)N2CCCCC2)cc1NC(=O)CCl`, the melting point lay in the range of 115 to 130 °C.

As for `CC(C)CCNS(=O)(=O)c1ccc(N)cc1`, the melting point was in the range of 119 to 121 °C.

For `O=S(=O)(Cl)c1cnc(Cl)c(Cl)c1`, the melting point is 46 to 48 °C.

Compound `CC(N)c1ccc(OCC(=O)NC2CC2)cc1` (stereo not drawn) registered a melting point of 75 to 77 °C.

The compound `O=C(O)CNC(=O)c1c[nH]c(=O)[nH]c1=O` had a melting point of 301 to 303 °C.
